Experimental findings from patent US10202346B2, “Phenol derivatives and the pharmaceutical or cosmetic use thereof” (Galderma Research & Development, priority 2009, dated 2019) are described below.

The target in one series is T1, receptors of AR type (Homo sapiens, UniProt P10275).
T1 construct: expressed in transfected cells; host or cells: PALM cells (PC3 stably transfected with PMMTV-neo-Luc and pSG5puro-AR)
T1 sequence (P10275 1-920): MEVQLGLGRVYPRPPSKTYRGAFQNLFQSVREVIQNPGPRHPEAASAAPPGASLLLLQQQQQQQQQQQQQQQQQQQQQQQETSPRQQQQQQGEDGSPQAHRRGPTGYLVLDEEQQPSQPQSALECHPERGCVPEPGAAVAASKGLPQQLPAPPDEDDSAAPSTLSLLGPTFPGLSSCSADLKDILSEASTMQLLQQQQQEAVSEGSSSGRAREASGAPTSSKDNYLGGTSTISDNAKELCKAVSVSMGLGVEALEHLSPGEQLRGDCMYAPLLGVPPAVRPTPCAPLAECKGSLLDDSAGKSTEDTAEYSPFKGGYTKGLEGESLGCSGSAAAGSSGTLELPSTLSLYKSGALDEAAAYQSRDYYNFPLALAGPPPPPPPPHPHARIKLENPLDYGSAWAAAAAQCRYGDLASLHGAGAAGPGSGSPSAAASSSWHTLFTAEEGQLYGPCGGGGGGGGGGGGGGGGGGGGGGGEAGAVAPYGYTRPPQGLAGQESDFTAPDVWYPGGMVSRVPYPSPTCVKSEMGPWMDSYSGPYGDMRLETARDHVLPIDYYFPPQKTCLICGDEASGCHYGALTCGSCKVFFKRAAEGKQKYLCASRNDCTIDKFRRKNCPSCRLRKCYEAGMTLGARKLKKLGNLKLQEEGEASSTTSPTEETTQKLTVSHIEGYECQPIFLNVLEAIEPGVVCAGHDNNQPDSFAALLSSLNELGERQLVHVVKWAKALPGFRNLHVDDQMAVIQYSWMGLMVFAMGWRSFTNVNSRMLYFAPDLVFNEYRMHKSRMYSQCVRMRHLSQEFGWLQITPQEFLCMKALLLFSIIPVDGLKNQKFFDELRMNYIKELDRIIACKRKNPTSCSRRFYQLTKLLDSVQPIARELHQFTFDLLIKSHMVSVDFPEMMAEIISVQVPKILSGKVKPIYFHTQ
Description: AR transactivation test in PALM (PC3 Androgen receptor Luciferase MMTV) cell line. As to conditions: cross curves against reference agonist methyltrienolone, read-out: Kdapp (apparent dissociation constant). The format is cell-based. The procedure: The compounds according to the invention show inhibitory properties on receptors of AR type. This AR receptor-inhibiting activity is measured in a transactivation test through the KdR (resting), KdA (active) and Kdapp (apparent) dissociation constants according to the method set out in J. Molecular Biology (1965), 12(1), 88-118, Monod J. of et al.
The transactivation test is carried out in the PALM (PC3 Androgen receptor Luciferase MMTV) cell line which is a stable transfectant containing the PMMTV-neo-Luc (reporter gene) and pSG5puro-AR plasmids.
In this study, the affinity of each product for the 2 receptor states (KdR and KdA) is determined, as is an apparent Kd (KdApp). This constant is a result of the 2 Kd, but also depends on the initial equilibrium of the receptor between the active state and the resting state (L0) and on its expression level. It is determined by means of the following formula: 1/KdApp=(L0/(1+L0))×(1/KdR)+(1/(1+L0))×(1/KdA)
To determine these constants, “cross curves” of the test product against a reference agonist, methyltrienolone, are produced in 96-well plates. The test product is used at 10 concentrations and the reference agonist at 7 concentrations, […]

In the case of `COc1cc(NCc2ccccc2O)cc(Br)n1` [Example 1, 2-[(2-Bromo-6-methoxypyridin-4-ylamino)methyl]phenol], the melting point was determined as 137 °C. For the same compound, on receptors of AR type, the Kd was 0.02 µM.

As for `Oc1ccccc1CNc1ccnc(Cl)c1` [Example 2, 2-[(2-Chloropyridin-4-ylamino)methyl]phenol], the Kd on receptors of AR type came to 0.004 µM.

Turning to `Oc1ccc(F)cc1CNc1ccnc(Br)c1` [Example 4, 2-[(2-Bromopyridin-4-ylamino)methyl]-4-fluorophenol], the Kd on receptors of AR type was determined as 0.02 µM.

Regarding `COc1cc(NCc2ccccc2O)ccn1` [Example 5, 2-[(2-Methoxypyridin-4-ylamino)methyl]phenol], on receptors of AR type, the Kd is 0.05 µM.
